Data: US20110229437A1, “Method of Treating Asthma with Antiviral Agents” (priority 2009, published 2011)

Tests used:
[1] = Case report: asthma symptoms of an adult with history of asthma after a 5 day course of Tamiflu; settings: one patient
Description: They had been using Advair® two inhalations a day or Symbicort® four puffs a day. Advair® is a combination formulation containing fluticasone propionate (a corticosteroid) and salmeterol xinafoate (a long-acting β2-adrenergic receptor agonist). Symbicort® contains two active ingredients which are delivered via a single inhaler: budesonide, a corticosteroid, and formoterol, a long-acting β2-agonist.
Singulair® contains montelukast, a leukotriene receptor antagonist (LTRA) used for the maintenance treatment of asthma and to relieve symptoms of seasonal allergies.

[2] = Case report: flu like symptoms of the same adult under Tamiflu; assay type: in vivo, human; settings: Tamiflu 75 mg by mouth twice a day

SMILES	side effects in the patient ([1]; used for years)	time until fatigue resolved ([2]; one patient) [days]	time until feeling better and myalgias relieved ([2]; one patient) [h]	fever after start of treatment ([2]; dropped from 39 C.° within 1.5 days) [C.°]	asthma symptoms ([1]; during/after Tamiflu 75 mg by mouth twice a day for 5 days)	level of asthmatic relief compared with prednisone 60 mg per day, reported by the patient ([1]; five weeks after using Tamiflu)
CC(C)(O)c1ccccc1CC[C@@H](SCC1(CC(=O)O)CC1)c1cccc(/C=C/c2ccc3ccc(Cl)cc3n2)c1 [Singulair, montelukast]	no side effects					
CCOC(=O)C1=C[C@@H](OC(CC)CC)[C@H](NC(C)=O)[C@@H](N)C1 [Tamiflu, Oseltamivir phosphate]		≤ 1.5	≤ 12	38	diminished	similar
